The record followed here is PubChem BioAssay (NCI).

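Results reflect a 48-hour exposure of cells in 96-well plates to compound at five concentrations. GI50 is the concentration that inhibits growth by half. TGI: concentration producing complete growth inhibition.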

Among the test systems are UO-31 renal; MOLT-4 leukemia; HOP-62 NSCLC; SF-539 CNS; MALME-3M melanoma; SK-MEL-2 melanoma; A549 NSCLC; CCRF-CEM leukemia; MDA-MB-231 breast.
Assay in all cases: inhibition of tumour cell growth, NCI panel, 48 h

In the case of `O=C([CH-]C(=O)c1ccccc1)c1ccccc1.[CH-]1CCCCC1.[CH-]1CCCCC1.[CH-]1CCCCC1.[Sn+4]`, the GI50 with UO-31 renal was 12.5 µM; with MOLT-4 leukemia, 2.41 µM; with HOP-62 NSCLC, 7.85 µM; in the assay on SF-539 CNS it was 10.4 µM; with MALME-3M melanoma, 8.75 µM; in the assay on SK-MEL-2 melanoma, 3.39 µM. Besides, the GI50 in the assay on A549 NSCLC was 15.5 µM. The TGI with UO-31 renal stood at 25 µM; in the assay on MOLT-4 leukemia, 7.47 µM; with HOP-62 NSCLC, 20 µM; in the assay with SF-539 CNS it was 27 µM; in the assay with MALME-3M melanoma, 22.1 µM; with SK-MEL-2 melanoma it was 11.9 µM. In the assay on A549 NSCLC, the TGI was 38.6 µM.
Regarding `COc1ccc2c3c([nH]c2c1[N+](=O)[O-])C(C)N(Cc1ccccc1)CC3` (stereo unspecified), the TGI is above 100 µM with CCRF-CEM leukemia; above 100 µM in the assay with UO-31 renal; 23.4 µM in the assay on MOLT-4 leukemia; 7.12 µM in the assay on HOP-62 NSCLC; 5.24 µM in the assay on SF-539 CNS; above 100 µM in the assay with SK-MEL-2 melanoma. This compound also yielded a TGI in the assay with A549 NSCLC above 100 µM.
For `COC(=O)C1Cc2c(n(C)c3ccccc23)C(CCC(=O)O)N1Cc1ccccc1` (stereo unspecified), the TGI in the assay with CCRF-CEM leukemia is above 100 µM; with UO-31 renal, 51.4 µM; in the assay with MOLT-4 leukemia, above 100 µM; in the assay on HOP-62 NSCLC, above 100 µM; in the assay with SF-539 CNS, 58 µM; in the assay on MALME-3M melanoma it was above 100 µM. Moreover, the TGI in the assay on SK-MEL-2 melanoma and in the assay on A549 NSCLC was above 100 µM each time.
Consider `COC(=O)N/N=C(\C)c1c(O)cc(C)oc1=O`, for which the TGI in the assay on CCRF-CEM leukemia was above 100 µM; in the assay with UO-31 renal, above 100 µM; with MOLT-4 leukemia it was above 100 µM; in the assay on HOP-62 NSCLC, above 100 µM; in the assay on SF-539 CNS it was 58 µM; in the assay on MALME-3M melanoma, above 100 µM. Besides, the TGI in the assay with SK-MEL-2 melanoma and in the assay on A549 NSCLC was above 100 µM each time.
Regarding `CC(=O)[O-].Cn1ccnc1CNCc1nccn1C.[Cu+2].[O-][Cl+3]([O-])([O-])[O-]`, the GI50 in the assay on CCRF-CEM leukemia, with MOLT-4 leukemia, with HOP-62 NSCLC, in the assay with SF-539 CNS and with A549 NSCLC was above 100 µM throughout. Besides, the TGI in the assay with CCRF-CEM leukemia, in the assay on MOLT-4 leukemia, in the assay with HOP-62 NSCLC, in the assay on SF-539 CNS and with A549 NSCLC was above 100 µM throughout.
On to `N/C(=N\N=C\c1ccc(C(F)(F)F)cc1)NO`, for which the TGI with CCRF-CEM leukemia is 95.5 µM; in the assay on HOP-62 NSCLC it was 55 µM; with SF-539 CNS, 50.6 µM; in the assay with MALME-3M melanoma, above 100 µM; in the assay on SK-MEL-2 melanoma, 92 µM; in the assay with A549 NSCLC it was 59.2 µM.
On to `O=[N+]([O-])C=C(c1ccc(Cl)cc1)c1ccc(Cl)cc1`, for which the TGI turned out to be 67.7 µM in the assay with CCRF-CEM leukemia; 27.2 µM in the assay on UO-31 renal; 56.9 µM with MOLT-4 leukemia; 37.5 µM with HOP-62 NSCLC; 31.5 µM in the assay on SF-539 CNS; 57 µM with SK-MEL-2 melanoma. The TGI with A549 NSCLC came to 46.7 µM.
As to `CCOC(=O)C(=O)CC1=Nc2ccccc2SC(c2cccc(C)c2)C1` (stereo unspecified), the TGI in the assay with CCRF-CEM leukemia is 63.1 µM; with UO-31 renal, 28.7 µM; in the assay with MOLT-4 leukemia, 47.9 µM; in the assay with HOP-62 NSCLC, 49.4 µM; in the assay with SF-539 CNS, 35.1 µM; in the assay on MALME-3M melanoma, 31 µM. The TGI is 30.5 µM with SK-MEL-2 melanoma and 50.8 µM with A549 NSCLC.
Consider `CC1/C(=N\O)CC(c2ccccc2)N(C)C1c1ccccc1` (stereo unspecified), for which the TGI with CCRF-CEM leukemia, with UO-31 renal, in the assay with MOLT-4 leukemia, in the assay on HOP-62 NSCLC, with SF-539 CNS and in the assay with MALME-3M melanoma was above 100 µM throughout. Moreover, the TGI with SK-MEL-2 melanoma and in the assay with A549 NSCLC was above 100 µM in each case.
As for `CCOP(=O)(OCC)C1CCCOC1=O` (stereo unspecified), the TGI in the assay on CCRF-CEM leukemia, in the assay with UO-31 renal, with MOLT-4 leukemia, in the assay with HOP-62 NSCLC, with SF-539 CNS and with MALME-3M melanoma was above 100 µM in each case. Besides, the TGI in the assay with SK-MEL-2 melanoma and in the assay with A549 NSCLC was above 100 µM throughout.
In the case of `CC1=C(/C=C/C(C)=C/C2CC(N(C)C)=CC(=O)O2)C(C)(C)CCC1` (stereo unspecified), the TGI in the assay with CCRF-CEM leukemia came to 22.3 µM; with UO-31 renal, 22.7 µM; with MOLT-4 leukemia, 19.9 µM; in the assay with HOP-62 NSCLC, 31 µM; in the assay with SF-539 CNS, 30.2 µM; with MALME-3M melanoma it was 28.6 µM. The TGI in the assay with SK-MEL-2 melanoma was found to be 27.4 µM; with A549 NSCLC, 22.3 µM.
For `O=C1CC(c2cccc(F)c2)Nc2cc3c(cc21)OCO3` (stereo unspecified), the GI50 is below 0.01 µM in the assay with CCRF-CEM leukemia; 0.04 µM with MDA-MB-231 breast; below 0.01 µM with UO-31 renal; 2.65 µM in the assay on HOP-62 NSCLC; below 0.01 µM in the assay on SF-539 CNS; below 0.01 µM in the assay with A549 NSCLC. The TGI in the assay with CCRF-CEM leukemia is above 100 µM; in the assay with MDA-MB-231 breast it was above 100 µM; in the assay on UO-31 renal it was above 100 µM; in the assay with MOLT-4 leukemia, below 0.01 µM; in the assay on HOP-62 NSCLC it was above 100 µM; in the assay with A549 NSCLC it was above 100 µM.
With `CC1=C(C(=O)Nc2ccccc2)C(c2cccc3ccccc23)C(C(=O)Nc2ccccc2)=C(C)N1`, the TGI stood at 59.6 µM with CCRF-CEM leukemia; 52.8 µM in the assay with UO-31 renal; 43.8 µM in the assay on MOLT-4 leukemia; 35.4 µM with HOP-62 NSCLC; 37.9 µM in the assay on SF-539 CNS; 37.4 µM in the assay with MALME-3M melanoma. Also, the TGI is 34.7 µM with SK-MEL-2 melanoma and 82 µM with A549 NSCLC.
On to `CN(C)C(=N/O)/C(=N\O)N(C)C`, for which the TGI with CCRF-CEM leukemia, in the assay on UO-31 renal, in the assay on MOLT-4 leukemia, in the assay on HOP-62 NSCLC, in the assay on SF-539 CNS and in the assay with MALME-3M melanoma was above 100 µM throughout. Further, the TGI in the assay with SK-MEL-2 melanoma and in the assay with A549 NSCLC was above 100 µM in each case.
In the case of `O=C(/C=C/c1ccccc1F)c1ccc(Cl)c(Cl)c1`, the TGI was 67.8 µM in the assay on CCRF-CEM leukemia; above 100 µM in the assay with UO-31 renal; 77 µM in the assay with MOLT-4 leukemia; above 100 µM with HOP-62 NSCLC; above 100 µM with SF-539 CNS; above 100 µM in the assay with MALME-3M melanoma. For the same compound, the TGI with SK-MEL-2 melanoma and with A549 NSCLC was above 100 µM throughout.
As to `Cc1cccc(C)c1NC(=O)C1=NC(=S)NC(c2ccccc2)C1c1nc2ccccc2s1` (stereo unspecified), the TGI in the assay on CCRF-CEM leukemia, in the assay on UO-31 renal, in the assay on MOLT-4 leukemia, in the assay with SF-539 CNS, with MALME-3M melanoma and in the assay with SK-MEL-2 melanoma was above 100 µM each time. The compound further had a TGI in the assay with A549 NSCLC above 100 µM.
On to `O=C(CC1OC(O)C(Cl)=C1Cl)c1cccnc1` (stereo unspecified), for which the TGI in the assay on CCRF-CEM leukemia was above 100 µM; in the assay with UO-31 renal, above 100 µM; with MOLT-4 leukemia, above 100 µM; with HOP-62 NSCLC, above 77.7 µM; in the assay with SF-539 CNS, 1.41 µM; in the assay with MALME-3M melanoma, above 100 µM. In the assay on A549 NSCLC, this compound displayed a TGI above 100 µM.
Consider `CN(C)CCNC(=O)c1cccc2cc3c(Cl)cccc3nc12`, for which the TGI in the assay with UO-31 renal is above 28.7 µM; with MOLT-4 leukemia it was 0.556 µM; in the assay on HOP-62 NSCLC it was 2.55 µM; in the assay with SF-539 CNS, 4.03 µM; with MALME-3M melanoma, 2.1 µM; in the assay on SK-MEL-2 melanoma, 3.5 µM. Further, the TGI in the assay on A549 NSCLC amounted to 9.35 µM.
With `C[CH2][Ge]([CH2]C)([CH2]C)[O]C(=O)C(OC(C)=O)c1ccccc1` (stereo unspecified), the GI50 in the assay on CCRF-CEM leukemia is 24.1 µM; in the assay with UO-31 renal, above 100 µM; with HOP-62 NSCLC it was above 100 µM; in the assay on SF-539 CNS it was above 100 µM; in the assay on MALME-3M melanoma, above 100 µM; with A549 NSCLC, above 100 µM. The TGI in the assay on CCRF-CEM leukemia, with UO-31 renal, with HOP-62 NSCLC, with SF-539 CNS, with MALME-3M melanoma and in the assay with A549 NSCLC was above 100 µM throughout.
For the compound `O=C1C(c2ccc(Br)cc2)=[N+]([O-])c2ccccc21`, the TGI worked out at 22.6 µM with CCRF-CEM leukemia; 38.7 µM in the assay with UO-31 renal; 26.6 µM in the assay with MOLT-4 leukemia; 68.8 µM with HOP-62 NSCLC; 34.7 µM in the assay on SF-539 CNS; 32.7 µM in the assay with MALME-3M melanoma. Further, the TGI worked out at 57.6 µM with SK-MEL-2 melanoma and 41.2 µM in the assay on A549 NSCLC.
For the compound `c1ccc(C2OC3(CCC[C@H]4C[C@H]43)O[C@H]2c2ccccc2)cc1` (stereo partly specified), the TGI with CCRF-CEM leukemia was 49.9 µM; with UO-31 renal, above 100 µM; in the assay with MOLT-4 leukemia, 63.9 µM; with HOP-62 NSCLC, above 100 µM; with SF-539 CNS it was above 100 µM; with MALME-3M melanoma, 88 µM. For the same compound, the results for the TGI with SK-MEL-2 melanoma and in the assay on A549 NSCLC were 39.6 µM and above 100 µM, respectively.
As for `O=C1C=CC=C/C1=C1/SC(c2ccccc2)=C(O)N1c1ccccc1`, the TGI in the assay on UO-31 renal, in the assay on SF-539 CNS, with MALME-3M melanoma, with SK-MEL-2 melanoma and in the assay on A549 NSCLC was above 100 µM throughout.
On to `Cc1cccc(C2SCc3nc4ccccc4n32)c1` (stereo unspecified), for which the TGI in the assay on CCRF-CEM leukemia was above 100 µM; with MOLT-4 leukemia, above 100 µM; with HOP-62 NSCLC, 66.6 µM; in the assay on SF-539 CNS, above 100 µM; in the assay on MALME-3M melanoma, 49.6 µM; with SK-MEL-2 melanoma, 52.6 µM. This compound gave a TGI with A549 NSCLC above 100 µM.
As for `CC(=O)c1c2c(cc3c1CC1(C3)Cc3cc4c(c(C(C)=O)c3C1)CCC4)CCC2`, the TGI with CCRF-CEM leukemia, in the assay on UO-31 renal, in the assay on MOLT-4 leukemia, with HOP-62 NSCLC, with SF-539 CNS and in the assay with MALME-3M melanoma was above 100 µM throughout. In the assay on A549 NSCLC, this compound gave a TGI above 100 µM.
